# Test results published in US10640534B2 (Agios Pharmaceuticals, Inc., priority 2012, dated 2020).
# pIC50: −log10 of the molar value.
# Tested on: U87MG cells
# Experiment: Cellular assay, inhibition of 2-HG production in U87MG cells
# Format: cell-based
# Conditions: Homo sapiens, U-87 MG, 48 h
# Method: Cells (HT1080 or U87MG) are grown in T125 flasks in DMEM containing 10% FBS, 1× penicillin/streptomycin and 500 ug/mL G418 (present in U87MG cells only). They are harvested by trypsin and seeded into 96 well white bottom plates at a density of 5000 cell/well in 100 ul/well in DMEM with 10% FBS. […] Cells are incubated overnight at 37° C. in 5% CO2. The next day test compounds are made up at 2× the final concentration and 100 ul are added to each cell well. The final concentration of DMSO is 0.2% and the DMSO control wells are plated in row G. The plates are then placed in the incubator for 48 hours. […] The cell plate is placed back in the incubator for another 24 hours. At 72 hours post compound addition, 10 mL/plate of Promega Cell Titer Glo reagent is thawed and mixed. The cell plate is removed from the incubator and allowed to equilibrate to room temperature. Then 100 ul of Promega Cell Titer Glo reagent is added to each well of media. The cell plate is then placed on an orbital shaker for 10 minutes and then allowed to sit at room temperature for 20 minutes. The plate is then read for luminescence with an integration time of 500 ms.
row,Compound,pIC50
1,"N#Cc1ccnc(N2C(=O)CC[C@H]2C(=O)N(c2cncc(F)c2)[C@H](C(=O)NC2CC(F)(F)C2)c2ccccc2F)c1 [Compound 148, (S)-1-(4-Cyanopyridin-2-yl)-N—((S)-2-((3,3-difluorocyclobutyl)amino)-1-(2-fluorophenyl)-2-oxoethyl)-N-(5-fluoropyridin-3-yl)-5-oxopyrrolidine-2-carboxamide]",> 7.00
2,"N#Cc1ccnc(N2C(=O)CC[C@H]2C(=O)N(c2cc(F)cc(C3CC3)c2)[C@H](C(=O)NC2CCC(F)(F)CC2)c2ccccc2Cl)c1 [Compound 202, (S)—N—((S)-1-(2-Chlorophenyl)-2-((4,4-difluorocyclohexyl)amino)-2-oxoethyl)-1-(4-cyanopyridin-2-yl)-N-(3-cyclopropyl-5-fluorophenyl)-5-oxopyrrolidine-2-carboxamide]",> 7.00
3,"N#Cc1ccnc(N2C(=O)CC[C@H]2C(=O)N(c2cccc(F)c2)[C@H](C(=O)NC2CC(F)(F)C2)c2ccccc2)c1 [Compound 138, (S)-1-(4-Cyanopyridin-2-yl)-N—((S)-2-((3,3-difluorocyclobutyl)amino)-2-oxo-1-phenylethyl)-N-(3-fluorophenyl)-5-oxopyrrolidine-2-carboxamide]",> 7.00
4,"N#Cc1ccnc(N2C(=O)CC[C@H]2C(=O)N(c2cccc(F)c2)[C@H](C(=O)NC2CCC(F)(F)CC2)c2ccccc2Cl)n1 [Compound 85, (S)—N—((S)-1-(2-Chlorophenyl)-2-((4,4-difluorocyclohexyl)amino)-2-oxoethyl)-1-(4-cyanopyrimidin-2-yl)-N-(3-fluorophenyl)-5-oxopyrrolidine-2-carboxamide]",> 7.00
5,"N#Cc1ccnc(N2C(=O)[C@H](O)C[C@H]2C(=O)N(c2cc(F)cc(F)c2)[C@H](C(=O)NC2CC(F)(F)C2)c2ccccc2Cl)n1 [Compound 117, (2S,4R)—N—((S)-1-(2-Chlorophenyl)-2-((3,3-difluorocyclobutyl)amino)-2-oxoethyl)-1-(4-cyanopyrimidin-2-yl)-N-(3,5-difluorophenyl)-4-hydroxy-5-oxopyrrolidine-2-carboxamide]",> 7.00
6,"N#Cc1ccnc(N2C(=O)[C@H](O)C[C@H]2C(=O)N(c2cc(F)cc(F)c2)[C@H](C(=O)NC2CC(F)(F)C2)c2ccccc2Cl)c1 [Compound 115, (2S,4R)—N—((S)-1-(2-Chlorophenyl)-2-((3,3-difluorocyclobutyl)amino)-2-oxoethyl)-1-(4-cyanopyridin-2-yl)-N-(3,5-difluorophenyl)-4-hydroxy-5-oxopyrrolidine-2-carboxamide]",> 7.00
7,"N#Cc1ccnc(N2C(=O)CC[C@H]2C(=O)N(c2cc(F)cc(F)c2)[C@H](C(=O)NC2CC(F)(F)C2)c2ccccc2Cl)c1 [Compound 71, (S)—N—((S)-1-(2-Chlorophenyl)-2-((3,3-difluorocyclobutyl)amino)-2-oxoethyl)-1-(4-cyanopyridin-2-yl)-N-(3,5-difluorophenyl)-5-oxopyrrolidine-2-carboxamide]",> 7.00
8,O=C(NC1CC(F)(F)C1)[C@H](c1ccccc1Cl)N(C(=O)[C@@H]1CCC(=O)N1c1ncccn1)c1cccc(F)c1 [Compound 1],6.30 to 7.00
9,"N#Cc1ccnc(N2C(=O)[C@H](O)C[C@H]2C(=O)N(c2cc(F)cc(F)c2)[C@@H](C(=O)NC2CCC(F)(F)CC2)c2ccccc2Cl)n1 [Compound 126, (2S,4R)—N—((R)-1-(2-Chlorophenyl)-2-(4,4-difluorocyclohexylamino)-2-oxoethyl)-1-(4-cyanopyrimidin-2-yl)-N-(3,5-difluorophenyl)-4-hydroxy-5-oxopyrrolidine-2-carboxamide]",6.30 to 7.00

# More lines, now with the values ahead:
row,pIC50,Compound
1,> 7.00,"N#Cc1cc(C#N)cc(N(C(=O)[C@@H]2CCC(=O)N2c2cc(C#N)ccn2)[C@H](C(=O)NC2CC(F)(F)C2)c2ccccc2Cl)c1 [Compound 153, (S)—N—((S)-1-(2-Chlorophenyl)-2-((3,3-difluorocyclobutyl)amino)-2-oxoethyl)-1-(4-cyanopyridin-2-yl)-N-(3,5-dicyanophenyl)-5-oxopyrrolidine-2-carboxamide]"
2,> 7.00,"N#Cc1ccnc(N2C(=O)OCC[C@H]2C(=O)N(c2cc(F)cc(F)c2)[C@H](C(=O)NC2CC(F)(F)C2)c2ccccc2Cl)c1 [Compound 133, (S)—N—((S)-1-(2-Chlorophenyl)-2-((3,3-difluorocyclobutyl)amino)-2-oxoethyl)-3-(4-cyanopyridin-2-yl)-N-(3,5-difluorophenyl)-2-oxo-1,3-oxazinane-4-carboxamide]"
3,> 7.00,"N#Cc1ccnc(N2C(=O)CCC[C@H]2C(=O)N(c2cccc(F)c2)[C@H](C(=O)NC2CC(F)(F)C2)c2ccccc2Cl)c1 [Compound 55, (S)—N—((S)-1-(2-Chlorophenyl)-2-(3,3-difluorocyclobutylamino)-2-oxoethyl)-1-(4-cyanopyridin-2-yl)-N-(3-fluorophenyl)-6-oxopiperidine-2-carboxamide]"
4,> 7.00,"CS(=O)(=O)c1cc(F)cc(N(C(=O)[C@@H]2CCC(=O)N2c2nccc(C#N)n2)[C@H](C(=O)NC2CCC(F)(F)CC2)c2ccccc2Cl)c1 [Compound 168, (S)—N—((S)-1-(2-Chlorophenyl)-2-((4,4-difluorocyclohexyl)amino)-2-oxoethyl)-1-(4-cyanopyrimidin-2-yl)-N-(3-fluoro-5-(methylsulfonyl)phenyl)-5-oxopyrrolidine-2-carboxamide]"
5,> 7.00,"COc1cccc(N(C(=O)[C@@H]2CCC(=O)N2c2cc(C#N)ccn2)[C@H](C(=O)NC2CC(F)(F)C2)c2ccccc2Cl)c1 [Compound 129, (S)—N—((S)-1-(2C)-2-((3,3-difluorocyclobutyl)amino)-2-oxoethyl)-1-(4-cyanopyridin-2-yl)-N-(3-methoxyphenyl)-5-oxopyrrolidine-2-carboxamide]"
6,> 7.00,"N#Cc1ccnc(N2C(=O)CC[C@H]2C(=O)N(c2cc(F)cc(S(N)(=O)=O)c2)[C@H](C(=O)NC2CC(F)(F)C2)c2ccccc2Cl)c1 [Compound 158, (2S)—N-(1-(2-chlorophenyl)-2-(3,3-difluorocyclobutylamino)-2-oxo-ethyl)-1-(4-cyanopyridin-2-yl)-N-(3-fluoro-5-sulfamoylphenyl)-5-oxopyrrolidine-2-carboxamide]"
7,> 7.00,"N#Cc1ccnc(N2C(=O)CC[C@H]2C(=O)N(c2ccccc2F)[C@H](C(=O)NC2CC(F)(F)C2)c2ccccc2Cl)c1 [Compound 187, (S)—N—((S)-1-(2-Chlorophenyl)-2-((3,3-difluorocyclobutyl)amino)-2-oxoethyl)-1-(4-cyanopyridin-2-yl)-N-(2-fluorophenyl)-5-oxopyrrolidine-2-carboxamide]"
8,> 7.00,"CN1C[C@@H](C(=O)N(c2cccc(F)c2)C(C(=O)NC2CC(F)(F)C2)c2ccccc2Cl)N(c2cc(C#N)ccn2)C1=O (stereo partly drawn) [Compound 79, (4S)—N-(1-(2-chlorophenyl)-2-((3,3-difluorocyclobutyl)amino)-2-oxoethyl)-3-(4-cyanopyridin-2-yl)-N-(3-fluorophenyl)-1-methyl-2-oxoimidazolidine-4-carboxamide]"
9,> 7.00,"N#Cc1ccnc(N2C(=O)CC[C@H]2C(=O)N(c2cc(F)cc(F)c2)[C@H](C(=O)NC2CC(F)(F)C2)c2cc(Cl)ccc2Cl)c1 [Compound 201, (S)-1-(4-Cyanopyridin-2-yl)-N—((S)-1-(2,5-dichlorophenyl)-2-((3,3-difluorocyclobutyl)-amino)-2-oxoethyl)-N-(3,5-difluorophenyl)-5-oxopyrrolidine-2-carboxamide]"
